Measurements taken from patent US20240051985A1, “METTL3 MODULATORS” (ACCENT THERAPEUTICS, INC., priority 2020, published 2024).

Tests used:
[1] = target: PRMT5-MEP50 (Homo sapiens, UniProt O14744); assay: PRMT5 assay (3H-SAM flashplate); conditions: Table 4; PRMT5 biochemical assay
Method: Assays were performed in a 25 μl-volume in 384-well V-bottom polypropylene microplates (Greiner Bio-One, cat. No. 781280) at ambient temperature. Optimized 1× assay buffer was 20 mM Tris-HCl pH 8.0, 1 mM DTT, […]. For compound screening PRMT5-MEP50 (final concentration, f.c.=2.5 nM) was added using a Multidrop Combi (ThermoFisher Scientific, Waltham, MA) and preincubated for 5 min. Reactions were started by adding 3′ biotinylated histone H4 peptide acetylated on serine 1 (Ac-[…]-Biotin) (f.c.=100 nM) and 3H-SAM (f.c.=250 nM) substrates. Reactions proceeded for 60 minutes and were quenched with excess non-radioactive SAM (f.c.=15 μM). The reactions were then transferred to streptavidin-coated flashplates and incubated for 2 hours at 25° C. Following two washing cycles with 0.1% Tween-20, the plates were sealed and read on a TopCount (PerkinElmer, Waltham, MA) plate-based scintillation counter. For determination of kinetic parameters, reaction times were optimized so that measurements were taken during the initial velocity phase of the reaction.

[2] = target: METTL3/METTL14 (Homo sapiens, UniProt Q86U44); assay: METTL3-14 standard enzyme assay (3H-SAM flashplate); conditions: Table 4; METTL3 biochemical assay
METTL3/METTL14, sequence (Q86U44 whole entry, species assumed): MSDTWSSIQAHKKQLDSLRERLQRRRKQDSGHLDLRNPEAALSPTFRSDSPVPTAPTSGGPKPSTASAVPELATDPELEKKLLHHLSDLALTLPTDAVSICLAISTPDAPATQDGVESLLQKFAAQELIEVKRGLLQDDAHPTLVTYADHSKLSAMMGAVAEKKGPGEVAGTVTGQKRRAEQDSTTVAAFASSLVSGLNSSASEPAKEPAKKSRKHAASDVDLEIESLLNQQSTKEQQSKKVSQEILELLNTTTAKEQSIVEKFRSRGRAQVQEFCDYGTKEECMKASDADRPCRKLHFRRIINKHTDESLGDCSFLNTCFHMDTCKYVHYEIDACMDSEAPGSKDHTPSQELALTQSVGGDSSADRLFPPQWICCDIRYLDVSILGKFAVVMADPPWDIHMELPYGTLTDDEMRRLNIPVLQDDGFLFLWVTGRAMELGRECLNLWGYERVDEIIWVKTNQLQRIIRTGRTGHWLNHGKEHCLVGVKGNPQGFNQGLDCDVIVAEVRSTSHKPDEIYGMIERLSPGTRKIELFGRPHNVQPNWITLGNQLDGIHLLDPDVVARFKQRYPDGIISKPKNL
METTL3/METTL14, sequence (Q9HCE5 whole entry partner, species assumed): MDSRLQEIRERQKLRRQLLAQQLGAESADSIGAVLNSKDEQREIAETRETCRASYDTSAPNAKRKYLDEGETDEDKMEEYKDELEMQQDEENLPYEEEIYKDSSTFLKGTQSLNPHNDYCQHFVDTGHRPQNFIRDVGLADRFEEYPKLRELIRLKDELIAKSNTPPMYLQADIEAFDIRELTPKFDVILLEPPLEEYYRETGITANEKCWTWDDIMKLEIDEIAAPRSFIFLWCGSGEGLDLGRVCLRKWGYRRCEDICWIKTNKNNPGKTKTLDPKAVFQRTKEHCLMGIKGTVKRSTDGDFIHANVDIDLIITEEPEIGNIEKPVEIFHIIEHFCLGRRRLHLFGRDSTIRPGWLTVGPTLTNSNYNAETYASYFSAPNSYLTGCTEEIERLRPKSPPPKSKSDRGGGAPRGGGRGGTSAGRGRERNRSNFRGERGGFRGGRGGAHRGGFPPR
Method in brief: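 METTL3/METTL14 (2.5 nM) preincubated 5 min, then reacted with 3′-biotinylated RNA UCUGGACUAAA (100 nM) and 3H-SAM (100 nM) for 30 min at ambient temperature in 20 mM HEPES pH 7.5, 50 mM KCl, 250 μM MgCl2, 1 mM DTT. Quenched with 15 μM cold SAM; product captured on streptavidin flashplates, scintillation counted.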

PRMT5-MEP50, sequence (O14744 whole entry): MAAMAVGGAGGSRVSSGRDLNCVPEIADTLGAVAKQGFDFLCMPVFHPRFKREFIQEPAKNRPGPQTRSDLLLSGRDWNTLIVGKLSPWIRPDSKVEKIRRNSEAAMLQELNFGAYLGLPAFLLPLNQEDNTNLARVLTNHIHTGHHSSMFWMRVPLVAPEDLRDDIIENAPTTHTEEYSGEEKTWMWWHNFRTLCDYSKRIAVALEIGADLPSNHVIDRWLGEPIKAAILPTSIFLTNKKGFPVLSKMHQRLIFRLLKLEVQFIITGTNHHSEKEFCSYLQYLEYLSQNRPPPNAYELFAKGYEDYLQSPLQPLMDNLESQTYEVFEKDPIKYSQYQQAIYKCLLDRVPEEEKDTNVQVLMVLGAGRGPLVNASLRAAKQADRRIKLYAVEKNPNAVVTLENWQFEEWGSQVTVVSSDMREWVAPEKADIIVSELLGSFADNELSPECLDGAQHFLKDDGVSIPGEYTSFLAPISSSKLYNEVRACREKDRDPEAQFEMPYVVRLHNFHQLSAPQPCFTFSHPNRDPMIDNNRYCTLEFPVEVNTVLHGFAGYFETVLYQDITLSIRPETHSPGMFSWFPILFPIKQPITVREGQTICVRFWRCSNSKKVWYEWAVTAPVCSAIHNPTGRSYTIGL
PRMT5-MEP50, sequence (Q9BQA1 whole entry partner): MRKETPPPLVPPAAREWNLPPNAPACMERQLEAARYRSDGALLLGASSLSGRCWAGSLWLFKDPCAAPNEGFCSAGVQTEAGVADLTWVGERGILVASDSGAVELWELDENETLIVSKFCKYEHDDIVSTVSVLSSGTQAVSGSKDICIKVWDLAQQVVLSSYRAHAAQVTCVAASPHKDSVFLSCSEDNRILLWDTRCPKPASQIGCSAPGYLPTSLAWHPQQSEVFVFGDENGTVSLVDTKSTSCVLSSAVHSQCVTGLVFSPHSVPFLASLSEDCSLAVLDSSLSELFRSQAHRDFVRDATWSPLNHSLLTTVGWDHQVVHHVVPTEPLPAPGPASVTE

| IC50 [1] | IC50 [2] | Molecule |
| --- | --- | --- |
| ≥ 1000 nM | ≥ 1000 nM | Cn1ccc(-c2cn([C@@H]3O[C@H](C(=O)N[C@H]4C[C@@H](O)C4)[C@@H](O)[C@H]3O)c3ncnc(N)c23)n1 [Compound I-214] |
| ≥ 1000 nM | ≥ 1000 nM | Cn1ccc(-c2cn([C@@H]3O[C@H](C(=O)N[C@H]4C[C@H](O)C4)[C@@H](O)[C@H]3O)c3ncnc(N)c23)n1 [Compound I-215] |
| 10 to 100 nM | 100 to 1000 nM | CN1CC(NC(=O)[C@H]2O[C@@H](n3cc(-c4ccn(C)n4)c4c(N)ncnc43)[C@H](O)[C@@H]2O)C1 [Compound I-216] |
| 10 to 100 nM | 100 to 1000 nM | Cn1ccc(-c2cn([C@@H]3O[C@H](C(=O)N4CCc5[nH]cnc5C4)[C@@H](O)[C@H]3O)c3ncnc(N)c23)n1 [Compound I-217] |
| ≥ 1000 nM | 100 to 1000 nM | Cn1ccc(-c2cn([C@@H]3O[C@H](C(=O)NC4CCC4)[C@@H](O)[C@H]3O)c3ncnc(N)c23)n1 [Compound I-218] |
| 100 to 1000 nM | 100 to 1000 nM | Cn1ccc(-c2cn([C@@H]3O[C@H](C(=O)NC4CCN(c5ccccc5)CC4)[C@@H](O)[C@H]3O)c3ncnc(N)c23)n1 [Compound I-221] |
| ≥ 1000 nM | 100 to 1000 nM | Cn1ccc(-c2cn([C@@H]3O[C@H](C(=O)NC4CCN(c5ccccn5)CC4)[C@@H](O)[C@H]3O)c3ncnc(N)c23)n1 [Compound I-222] |
| 10 to 100 nM | 10 to 100 nM | Cn1ccc(-c2cn([C@@H]3O[C@H](C(=O)NC4CCN(CC5CCC5)CC4)[C@@H](O)[C@H]3O)c3ncnc(N)c23)n1 [Compound I-223] |
| 100 to 1000 nM | 100 to 1000 nM | Cn1ccc(-c2cn([C@@H]3O[C@H](C(=O)NC4CCN(C5CCC5)CC4)[C@@H](O)[C@H]3O)c3ncnc(N)c23)n1 [Compound I-224] |
| 100 to 1000 nM | 100 to 1000 nM | Cn1ccc(-c2cn([C@@H]3O[C@H](C(=O)NC4CCN(C(=O)OCc5ccccc5)CC4)[C@@H](O)[C@H]3O)c3ncnc(N)c23)n1 [Compound I-225] |
| 10 to 100 nM | ≥ 1000 nM | CN1CCC[C@H](NC(=O)[C@H]2O[C@@H](n3cc(-c4ccn(C)n4)c4c(N)ncnc43)[C@H](O)[C@@H]2O)C1 [Compound I-230] |
| 100 to 1000 nM | 100 to 1000 nM | C[C@H]1C[C@@H](NC(=O)[C@H]2O[C@@H](n3cc(-c4ccn(C)n4)c4c(N)ncnc43)[C@H](O)[C@@H]2O)CCN1C [Compound I-232] |
| 100 to 1000 nM | ≥ 1000 nM | CC(=O)NCCCN(C(=O)[C@H]1O[C@@H](n2cc(-c3ccn(C)n3)c3c(N)ncnc32)[C@H](O)[C@@H]1O)C1CCN(C)CC1 [Compound I-235] |

Second part, the molecule before the results:

| Molecule | IC50 [1] | IC50 [2] |
| --- | --- | --- |
| CN1CCC(N(CCCNC(=O)OCc2ccccc2)C(=O)[C@H]2O[C@@H](n3cc(-c4ccn(C)n4)c4c(N)ncnc43)[C@H](O)[C@@H]2O)CC1 [Compound I-49, benzyl N-(3-{1-[(2S,3S,4R,5R)-5-[4-amino-5-(1-methyl-1H-pyrazol-3-yl)-7H-pyrrolo[2,3-d]pyrimidin-7-yl]-3,4-dihydroxyoxolan-2-yl]-N-(1-methylpiperidin-4-yl)formamido}propyl)carbamate] | 10 to 100 nM | 100 to 1000 nM |
| CN(C)CCCN(C(=O)[C@H]1O[C@@H](n2cc(-c3ccn(C)n3)c3c(N)ncnc32)[C@H](O)[C@@H]1O)C1CCN(C)CC1 [Compound I-51, (2S,3S,4R,5R)-5-[4-amino-5-(1-methyl-1H-pyrazol-3-yl)-7H-pyrrolo[2,3-d]pyrimidin-7-yl]-N-[3-(dimethylamino)propyl]-3,4-dihydroxy-N-(1-methylpiperidin-4-yl)oxolane-2-carboxamide] | 100 to 1000 nM | 100 to 1000 nM |
| CN1CCC(NC(=O)[C@H]2C[C@@H](n3cc(-c4ccn(C)n4)c4c(N)ncnc43)C[C@@H]2O)CC1 [Compound I-55, (1S,2S,4R)-4-(4-amino-5-(1-methyl-1H-pyrazol-3-yl)-7H-pyrrolo[2,3-d]pyrimidin-7-yl)-2-hydroxy-N-(1-methylpiperidin-4-yl)cyclopentane-1-carboxamide] | ≥ 1000 nM | ≥ 1000 nM |
| CN1CCC(N(CCCC(=O)O)C(=O)[C@H]2O[C@@H](n3cc(-c4ccn(C)n4)c4c(N)ncnc43)[C@H](O)[C@@H]2O)CC1 [Compound I-58, 4-{1-[(2S,3S,4R,5R)-5-[4-amino-5-(1-methyl-1H-pyrazol-3-yl)-7H-pyrrolo[2,3-d]pyrimidin-7-yl]-3,4-dihydroxyoxolan-2-yl]-N-(1-methylpiperidin-4-yl)formamido}butanoic acid] | 10 to 100 nM | ≥ 1000 nM |
| C#CCCCN(C(=O)[C@H]1O[C@@H](n2cc(-c3ccn(C)n3)c3c(N)ncnc32)[C@H](O)[C@@H]1O)C1CCN(C)CC1 [Compound I-59, (2S,3S,4R,5R)-5-(4-amino-5-(1-methyl-1H-pyrazol-3-yl)-7H-pyrrolo[2,3-d]pyrimidin-7-yl)-3,4-dihydroxy-N-(1-methylpiperidin-4-yl)-N-(pent-4-yn-1-yl)tetrahydrofuran-2-carboxamide] | < 10 nM | 100 to 1000 nM |
| CN1CCC(N(CCCc2cnoc2)C(=O)[C@H]2O[C@@H](n3cc(-c4ccn(C)n4)c4c(N)ncnc43)[C@H](O)[C@@H]2O)CC1 [Compound I-152] | 100 to 1000 nM | 100 to 1000 nM |
| CN1CCC(N(CCCNc2ccccn2)C(=O)[C@H]2O[C@@H](n3cc(-c4ccn(C)n4)c4c(N)ncnc43)[C@H](O)[C@@H]2O)CC1 [Compound I-153] | 10 to 100 nM | ≥ 1000 nM |
| CN1CCC(N(C[C@H]2CCNC2)C(=O)[C@H]2O[C@@H](n3cc(-c4ccn(C)n4)c4c(N)ncnc43)[C@H](O)[C@@H]2O)CC1 [Compound I-154] | 100 to 1000 nM | 100 to 1000 nM |
| CN1CCC(N(CCCC#N)C(=O)[C@H]2O[C@@H](n3cc(-c4ccn(C)n4)c4c(N)ncnc43)[C@H](O)[C@@H]2O)CC1 [Compound I-155] | 10 to 100 nM | 100 to 1000 nM |
| Cn1ccc(-c2cn([C@@H]3O[C@H](C(=O)N4CCC[C@H](C(N)=O)C4)[C@@H](O)[C@H]3O)c3ncnc(N)c23)n1 [Compound I-200] | ≥ 1000 nM | ≥ 1000 nM |
| Cn1ccc(-c2cn([C@@H]3O[C@H](C(=O)NC4CCN(Cc5ccccc5)CC4)[C@@H](O)[C@H]3O)c3ncnc(N)c23)n1 [Compound I-201] | 10 to 100 nM | 10 to 100 nM |
| Cn1ccc(-c2cn([C@@H]3O[C@H](C(=O)NC4CCN5CCCC5C4)[C@@H](O)[C@H]3O)c3ncnc(N)c23)n1 (stereo partly shown) [Compound I-206] | 100 to 1000 nM | 100 to 1000 nM |
| Cn1ccc(-c2cn([C@@H]3O[C@H](C(=O)NC4CCn5ccnc5C4)[C@@H](O)[C@H]3O)c3ncnc(N)c23)n1 (stereo partly shown) [Compound I-207] | 100 to 1000 nM | 100 to 1000 nM |
| Cn1ccc(-c2cn([C@@H]3O[C@H](C(=O)NC4CCC5(CC4)CNC5)[C@@H](O)[C@H]3O)c3ncnc(N)c23)n1 [Compound I-208] | 100 to 1000 nM | 100 to 1000 nM |
| Cn1ccc(-c2cn([C@@H]3O[C@H](C(=O)NC4CCS(=O)(=O)C4)[C@@H](O)[C@H]3O)c3ncnc(N)c23)n1 (stereo partly shown) [Compound I-213] | ≥ 1000 nM | ≥ 1000 nM |
| (2S,3S,4R,5R)-5-[4-amino-5-(1-methyl-1H-pyrazol-3-yl)-7H-pyrrolo[2,3-d]pyrimidin-7-yl]-3,4-dihydroxy-N-{3-[(methylcarbamoyl)amino]propyl}-N-(1-methylpiperidin-4-yl)oxolane-2-carboxamide [Compound I-50] | 100 to 1000 nM | ≥ 1000 nM |
